In PubChem BioAssay AID208 (DTP/NCI, 2004):
Values joined by “and” are separate entries in the source; they are usually repeats but may differ in a detail not shown here. Equal entries are not always repeated. Inconclusive results are not listed.

Test system: HT29 intrarenal xenograft, nude mice, tumor weight change
Experiment: NCI In Vivo Anticancer Drug Screen. Data for tumor model HT29;CX-1 Human Adenocarcinoma (MER+) (intrarenal inoculation) in NU/NU BALB/C (nude) mice
Details: endpoint: mean tumor weight change, higher = larger tumour
Procedure: The antitumor activity of compounds was measured in mice bearing transplantable tumors. Survival or tumor size were measured and the results are expressed as the measurement made in the treated group (T) divided by the measurement made in the vehicle treated control group (C). The tumor model used in this assay is HT29;CX-1 Human Adenocarcinoma (MER+) (intrarenal inoculation) in NU/NU BALB/C (nude) mice

[1] = dose: 75.0 mg/kg/injection, schedule: Q04DX004 (sc), vehicle: saline with Tween-80
[2] = dose: 75.0 mg/kg/injection, schedule: Q04DX004 (sc), vehicle: saline
[3] = dose: 300.0 mg/kg/injection, schedule: Q04DX004 (sc), vehicle: saline
[4] = dose: 600.0 mg/kg/injection, schedule: Q04DX004 (sc), vehicle: saline
[5] = dose: 100.0 mg/kg/injection, schedule: Q04DX004 (sc), vehicle: saline
[6] = dose: 12.5 mg/kg/injection, schedule: Q04DX004 (sc), vehicle: saline with Tween-80
[7] = dose: 25.0 mg/kg/injection, schedule: Q04DX004 (sc), vehicle: saline with Tween-80
[8] = dose: 12.5 mg/kg/injection, schedule: Q04DX004 (sc), vehicle: saline
[9] = dose: 25.0 mg/kg/injection, schedule: Q04DX004 (sc), vehicle: saline
[10] = dose: 50.0 mg/kg/injection, schedule: Q04DX004 (sc), vehicle: saline

## CCNC(C)(C)C(SSS)c1ccco1 (stereo not drawn)
[1]
  T/C: 121 % of control
dose: 150.0 mg/kg/injection, schedule: Q04DX004 (sc), vehicle: saline with Tween-80
  T/C: 119 % of control
dose: 300.0 mg/kg/injection, schedule: Q04DX004 (sc), vehicle: saline with Tween-80
  T/C: 91 % of control

## C[C@]12CCC(=O)C(O)=C1CC[C@@H]1[C@@H]2CC[C@]2(C)C(=O)CC[C@@H]12
dose: 150.0 mg/kg/injection, schedule: Q04DX004 (ip), vehicle: Klucel (hydroxypropylcellulose) (HPC)
  T/C: 84 % of control
dose: 300.0 mg/kg/injection, schedule: Q04DX004 (ip), vehicle: Klucel (hydroxypropylcellulose) (HPC)
  T/C: 94 % of control
dose: 600.0 mg/kg/injection, schedule: Q04DX004 (ip), vehicle: Klucel (hydroxypropylcellulose) (HPC)
  T/C: 67 % of control
dose: 1200.0 mg/kg/injection, schedule: Q04DX004 (ip), vehicle: Klucel (hydroxypropylcellulose) (HPC)
  T/C: 84 % of control

## CCN1C=C/C(=C\C=C/c2cc[n+](CC)c3ccccc23)c2ccccc21
dose: 0.5 mg/kg/injection, schedule: Q01DX010 (sc), vehicle: saline
  T/C: 229 % of control

## C[C@@H]1C[C@@H]([C@H](O)CC2CC(=O)NC(=O)C2)C(=O)[C@@H](C)C1
[2]
  T/C: 43 % of control

## C/C(=N\NC(=S)N1CCN(c2ccccn2)CC1)c1ccccn1
dose: 50.0 mg/kg/injection, schedule: Q04DX004 (sc), vehicle: water
  T/C: 158 % of control

## CCC1OCC(C(Cl)CCl)O1 (stereo not drawn)
dose: 177.0 mg/kg/injection, schedule: Q01DX014 (sc), vehicle: other
  T/C: 57 % of control and 75 % of control
dose: 267.0 mg/kg/injection, schedule: Q01DX014 (sc), vehicle: other
  T/C: 85 % of control
dose: 600.0 mg/kg/injection, schedule: Q01DX014 (sc), vehicle: other
  T/C: 61 % of control
dose: 900.0 mg/kg/injection, schedule: Q01DX014 (sc), vehicle: Klucel (hydroxypropylcellulose) (HPC)
  T/C: 10 % of control

## COc1cc2c(ccc3c4cc(OC)c(OC)cc4c[n+](C)c23)cc1O
[2]
  T/C: 49 % of control
dose: 150.0 mg/kg/injection, schedule: Q04DX004 (sc), vehicle: saline
  T/C: 42 % of control
[3]
  T/C: 51 % of control
[4]
  T/C: 75 % of control

## N#CC(OC1OC(COC2OC(CO)C(O)C(O)C2O)C(O)C(O)C1O)c1ccccc1 (stereo not drawn)
[3]
  T/C: 95 % of control
[4]
  T/C: 96 % of control
dose: 1200.0 mg/kg/injection, schedule: Q04DX004 (sc), vehicle: saline
  T/C: 88 % of control
dose: 2400.0 mg/kg/injection, schedule: Q04DX004 (sc), vehicle: saline
  T/C: 94 % of control

## c1ccc2c(c1)-c1ccccc1C1NC21 (stereo not drawn)
[1]
  T/C: 41 % of control

## [N-]=[N+]=[N-]
dose: 1.5 mg/kg/injection, schedule: Q04DX004 (ip), vehicle: water
  T/C: 79 % of control
dose: 3.0 mg/kg/injection, schedule: Q04DX004 (ip), vehicle: water
  T/C: 90 % of control
dose: 6.0 mg/kg/injection, schedule: Q04DX004 (ip), vehicle: water
  T/C: 59 % of control
dose: 12.0 mg/kg/injection, schedule: Q04DX004 (ip), vehicle: water
  T/C: 62 % of control

## CC(C)CC(NC(=O)CF)C(=O)O (stereo not drawn)
dose: 10.0 mg/kg/injection, schedule: Q04DX004 (sc), vehicle: saline
  T/C: 87 % of control
dose: 20.0 mg/kg/injection, schedule: Q04DX004 (sc), vehicle: saline
  T/C: 157 % of control

## CN(C)c1ccc2c(NCCCCCCNc3ccnc4cc(N(C)C)ccc34)ccnc2c1
dose: 37.5 mg/kg/injection, schedule: Q04DX004 (sc), vehicle: distilled water + Tween-80 + alcohol
  T/C: 92 % of control
dose: 75.0 mg/kg/injection, schedule: Q04DX004 (sc), vehicle: distilled water + Tween-80 + alcohol
  T/C: 60 % of control
dose: 150.0 mg/kg/injection, schedule: Q04DX004 (sc), vehicle: distilled water + Tween-80 + alcohol
  T/C: 54 % of control

## Cn1c(=O)[nH]c2nncnc2c1=O
dose: 60.0 mg/kg/injection, schedule: Q04DX004 (sc), vehicle: water
  T/C: 124 % of control

## CCNC=O
dose: 150.0 mg/kg/injection, schedule: Q01DX010 (ip), vehicle: suspension in saline
  T/C: 82 % of control
dose: 300.0 mg/kg/injection, schedule: Q01DX010 (ip), vehicle: suspension in saline
  T/C: 42 % of control
dose: 600.0 mg/kg/injection, schedule: Q01DX010 (ip), vehicle: suspension in saline
  T/C: 39 % of control

## CC[As](=O)(O)CC
[5]
  T/C: 61 % of control

## C[n+]1ccc2cc(N)c3c4ccccc4sc3c2c1
[6]
  T/C: 60 % of control
[7]
  T/C: 43 % of control

## COc1cccc2c1C(=O)c1c(O)c3c(c(O)c1C2=O)C[C@@](O)(/C(C)=N\O)C[C@@H]3OC1CC(N)C(O)C(C)O1 (stereo partly drawn)
[8]
  T/C: 150 % of control
[9]
  T/C: 100 % of control
[10]
  T/C: 103 % of control

## N=C1CCCS1
[8]
  T/C: 117 % of control
[9]
  T/C: 151 % of control
[10]
  T/C: 96 % of control
[5]
  T/C: 62 % of control

## C1OC1CO[C@@H]1CO[C@H]2[C@@H]1OC[C@H]2OCC1CO1 (stereo partly drawn)
dose: 50.0 mg/kg/injection, schedule: Q01DX010 (sc), vehicle: saline with Tween-80
  T/C: 121 % of control
dose: 100.0 mg/kg/injection, schedule: Q01DX010 (sc), vehicle: saline with Tween-80
  T/C: 64 % of control
dose: 200.0 mg/kg/injection, schedule: Q01DX010 (sc), vehicle: saline with Tween-80
  T/C: 103 % of control

## C/C=C/C=C/c1cc2cc3c(c(O)c2c(=O)[nH]1)C1(CC3)C(O)=c2c(=O)c3c(=O)cc(OC)c(=O)c=3c(=O)c2=C1O (stereo not drawn)
dose: 6.0 mg/kg/injection, schedule: Q04DX004 (sc), vehicle: DMSO
  T/C: 75 % of control
dose: 12.0 mg/kg/injection, schedule: Q04DX004 (sc), vehicle: DMSO
  T/C: 77 % of control
dose: 24.0 mg/kg/injection, schedule: Q04DX004 (sc), vehicle: DMSO
  T/C: 61 % of control
dose: 48.0 mg/kg/injection, schedule: Q04DX004 (sc), vehicle: DMSO
  T/C: 58 % of control

## CS(=O)(=O)OCCCNCCCOS(C)(=O)=O
[2]
  T/C: 71 % of control

## O=CC(NC(=O)N(CCCl)N=O)C(O)C(O)C(O)CO (stereo not drawn)
dose: 1.5 mg/kg/injection, schedule: Q01DX010 (sc), vehicle: Klucel (hydroxypropylcellulose) (HPC)
  T/C: 45 % of control
dose: 3.0 mg/kg/injection, schedule: Q01DX010 (sc), vehicle: Klucel (hydroxypropylcellulose) (HPC)
  T/C: 42 % of control
dose: 6.0 mg/kg/injection, schedule: Q01DX010 (sc), vehicle: Klucel (hydroxypropylcellulose) (HPC)
  T/C: 35 % of control

## CC(=O)Oc1ccc[nH]c1=O
dose: 200.0 mg/kg/injection, schedule: Q04DX004 (sc), vehicle: saline with Tween-80
  T/C: 88 % of control
dose: 400.0 mg/kg/injection, schedule: Q04DX004 (sc), vehicle: saline with Tween-80
  T/C: 104 % of control
dose: 800.0 mg/kg/injection, schedule: Q04DX004 (sc), vehicle: saline with Tween-80
  T/C: 122 % of control

## CC12CCC3C(CCC4CC(OC(=O)Cc5ccc(N(CCCl)CCCl)cc5)CCC43C)C1CCC(=O)N2 (stereo not drawn)
[6]
  T/C: 99 % of control
[7]
  T/C: 109 % of control
dose: 50.0 mg/kg/injection, schedule: Q04DX004 (sc), vehicle: saline with Tween-80
  T/C: 77 % of control
dose: 100.0 mg/kg/injection, schedule: Q04DX004 (sc), vehicle: saline with Tween-80
  T/C: 38 % of control

## O=C(O)CC(=O)O.[NH-]C1CCCCC1[NH-].[Pt+2] (stereo not drawn)
dose: 10.0 mg/kg/injection, schedule: Q01DX010 (sc), vehicle: dextrose
  T/C: 64 % of control
dose: 20.0 mg/kg/injection, schedule: Q01DX010 (sc), vehicle: dextrose
  T/C: 40 % of control
dose: 40.0 mg/kg/injection, schedule: Q01DX010 (sc), vehicle: dextrose
  T/C: 7 % of control

## O=C1N[C@H]2[C@H](CS[C@H]2CCCCC(=O)N(CCP(c2ccccc2)c2ccccc2)CCP(c2ccccc2)c2ccccc2)N1
dose: 150.0 mg/kg/injection, schedule: Q04DX004 (sc), vehicle: Klucel (hydroxypropylcellulose) (HPC)
  T/C: 121 % of control
dose: 600.0 mg/kg/injection, schedule: Q04DX004 (sc), vehicle: Klucel (hydroxypropylcellulose) (HPC)
  T/C: 86 % of control

## c1ccc2c(c1)[As]=c1ccccc1=[As]2 (stereo not drawn)
dose: 9.38 mg/kg/injection, schedule: Q04DX004 (sc), vehicle: saline
  T/C: 113 % of control
dose: 18.72 mg/kg/injection, schedule: Q04DX004 (sc), vehicle: saline
  T/C: 86 % of control
dose: 37.5 mg/kg/injection, schedule: Q04DX004 (sc), vehicle: saline
  T/C: 107 % of control
[2]
  T/C: 70 % of control

## Nc1ccc(S(=O)(=O)Nc2cnc3c(Cl)cccc3n2)cc1
dose: 300.0 mg/kg/injection, schedule: Q04DX004 (ip), vehicle: DMSO
  T/C: 85 % of control

## CC1(C)COCN1COCCOCN1COCC1(C)C
[10]
  T/C: 66 % of control
[5]
  T/C: 122 % of control
dose: 200.0 mg/kg/injection, schedule: Q04DX004 (sc), vehicle: saline
  T/C: 58 % of control
dose: 400.0 mg/kg/injection, schedule: Q04DX004 (sc), vehicle: saline
  T/C: 122 % of control
